Measured values from ChEMBL document CHEMBL4000149, “The effect of glycine replacement with flexible ω-amino acids on the antimicrobial and haemolytic activity of an amphipathic cyclic heptapeptide” (Eur J Med Chem, 2015).
Values after ≈ are worked out from the molar mass of the structure shown. Square brackets hold non-standard residues; d marks the D form. Peptide text beside a SMILES is read from it. ξ: configuration not given here. Bip = N[C@@H](Cc1ccc(-c2ccccc2)cc1)C(=O)O; Dip = N[C@H](C(=O)O)C(c1ccccc1)c1ccccc1; 2Nal = N[C@@H](Cc1ccc2ccccc2c1)C(=O)O; Cha = N[C@@H](CC1CCCCC1)C(=O)O; ξAoc(2) = CCCCCCC(N)C(=O)O; ξNle = CCCCC(N)C(=O)O

What was measured:
[1] = Toxicity in human erythrocytes assessed as hemolysis at 150 uM after 1 hr; type: cell-based, Erythrocyte; conditions: read-out: Activity
[2] = Toxicity in human erythrocytes assessed as hemolysis after 1 hr; type: cell-based, Erythrocyte
Enterococcus faecium = test: Antimicrobial activity against vancomycin-resistant Enterococcus faecium ATCC 700221 by tube dilution method; type: functional
Pseudomonas aeruginosa = test: Antimicrobial activity against Pseudomonas aeruginosa ATCC 27853 by tube dilution method; type: functional
Klebsiella pneumoniae = test: Antimicrobial activity against multidrug-resistant Klebsiella pneumoniae ATCC 700603 by tube dilution method; type: functional
Escherichia coli = test: Antimicrobial activity against Escherichia coli ATCC 25922 by tube dilution method; type: functional
Acinetobacter baumannii = test: Antimicrobial activity against multidrug-resistant Acinetobacter baumannii ATCC BAA-1605 by tube dilution method; type: functional
Staphylococcus aureus = test: Antimicrobial activity against methicillin-resistant Staphylococcus aureus ATCC 33591 by tube dilution method; type: functional
Candida albicans = test: Antifungal activity against Candida albicans ATCC 200955 by tube dilution method; type: functional

Compound	hemolysis at 1 h, 150 µM [1]	EC50 at 1 hr [2]	MIC (Enterococcus faecium)	MIC (Pseudomonas aeruginosa)	MIC (Klebsiella pneumoniae)	MIC (Escherichia coli)	MIC (Acinetobacter baumannii)	MIC (Staphylococcus aureus)	MIC (Candida albicans)
CCCCCCC1NC(=O)[C@@H](Cc2ccc3ccccc3c2)NC(=O)[C@H](CCCNC(=N)N)NC(=O)[C@H](CC(C)C)NC(=O)CNC(=O)[C@H](Cc2ccc3ccccc3c2)NC(=O)[C@H](CCCNC(=N)N)NC1=O (some centres undefined)	92%	55 µM	8 µM (≈ 8.15 µg/mL)	64 µM (≈ 65.2 µg/mL)	64 µM (≈ 65.2 µg/mL)	32 µM (≈ 32.6 µg/mL)	64 µM (≈ 65.2 µg/mL)	8 µM (≈ 8.15 µg/mL)	16 µM (≈ 16.3 µg/mL)
CC(C)C[C@@H]1NC(=O)CNC(=O)[C@H](Cc2c[nH]c3ccccc23)NC(=O)[C@H](CCCNC(=N)N)NC(=O)[C@H](CC(C)C)NC(=O)[C@H](Cc2c[nH]c3ccccc23)NC(=O)[C@H](CCCNC(=N)N)NC1=O (cyclo(GLRWLRW))	< 8%	> 150 µM	64 µM (≈ 62 µg/mL)	> 128 µM	> 128 µM	> 128 µM	> 128 µM	128 µM (≈ 124 µg/mL)	> 128 µM
CC(C)C[C@@H]1NC(=O)CNC(=O)[C@H](Cc2ccc3ccccc3c2)NC(=O)[C@H](CCCCN)NC(=O)[C@H](CC(C)C)NC(=O)[C@H](Cc2ccc3ccccc3c2)NC(=O)[C@H](CCCNC(=N)N)NC1=O (cyclo([2Nal]GLR[2Nal]LK))	19%	> 150 µM	16 µM (≈ 15.4 µg/mL)	128 µM (≈ 123 µg/mL)	> 128 µM	128 µM (≈ 123 µg/mL)	> 128 µM	32 µM (≈ 30.8 µg/mL)	32 µM (≈ 30.8 µg/mL)
CCCCCC[C@H]1NC(=O)[C@H](Cc2ccc3ccccc3c2)NC(=O)[C@H](CCCNC(=N)N)NC(=O)[C@H](CC(C)C)NC(=O)CNC(=O)[C@H](Cc2ccc3ccccc3c2)NC(=O)[C@H](CCCNC(=N)N)NC1=O	100%	55 µM	8 µM (≈ 8.15 µg/mL)	64 µM (≈ 65.2 µg/mL)	64 µM (≈ 65.2 µg/mL)	32 µM (≈ 32.6 µg/mL)	32 µM (≈ 32.6 µg/mL)	8 µM (≈ 8.15 µg/mL)	16 µM (≈ 16.3 µg/mL)
CCCCC1NC(=O)[C@H](Cc2ccc3ccccc3c2)NC(=O)[C@H](CCCNC(=N)N)NC(=O)[C@H](CC(C)C)NC(=O)CNC(=O)[C@H](Cc2ccc3ccccc3c2)NC(=O)[C@H](CCCNC(=N)N)NC1=O (some centres undefined) (cyclo([2Nal]GLR[2Nal][ξNle]R))	35%	> 150 µM	16 µM (≈ 15.8 µg/mL)	> 128 µM	> 128 µM	> 128 µM	> 128 µM	32 µM (≈ 31.7 µg/mL)	> 128 µM
CC(C)C[C@@H]1NC(=O)CNC(=O)[C@H](Cc2ccc3ccccc3c2)NC(=O)[C@H](CCCNC(=N)N)NC(=O)[C@H]([C@@H](C)O)NC(=O)[C@H](Cc2ccc3ccccc3c2)NC(=O)[C@H](CCCNC(=N)N)NC1=O (cyclo([2Nal]GLR[2Nal]TR))	< 8%	> 150 µM	128 µM (≈ 125 µg/mL)	> 128 µM	> 128 µM	128 µM (≈ 125 µg/mL)	> 128 µM	128 µM (≈ 125 µg/mL)	128 µM (≈ 125 µg/mL)
CCCCCCC1NC(=O)CNC(=O)[C@H](Cc2ccc3ccccc3c2)NC(=O)[C@H](CCCNC(=N)N)NC(=O)[C@H](CC(C)C)NC(=O)[C@H](Cc2ccc3ccccc3c2)NC(=O)[C@H](CCCNC(=N)N)NC1=O (some centres undefined) (cyclo([2Nal]G[ξAoc(2)]R[2Nal]LR))	100%	55 µM	32 µM (≈ 32.6 µg/mL)	128 µM (≈ 130 µg/mL)	64 µM (≈ 65.2 µg/mL)	32 µM (≈ 32.6 µg/mL)	128 µM (≈ 130 µg/mL)	32 µM (≈ 32.6 µg/mL)	64 µM (≈ 65.2 µg/mL)
CC(C)C[C@@H]1NC(=O)CNC(=O)[C@H](Cc2ccc3ccccc3c2)NC(=O)[C@H](CCCNC(=N)N)NC(=O)[C@H](CC(C)C)NC(=O)[C@H](Cc2ccc3ccccc3c2)NC(=O)[C@H](CCCNC(=N)N)NC1=O	27%	215 µM	8 µM (≈ 7.92 µg/mL)	64 µM (≈ 63.4 µg/mL)	128 µM (≈ 127 µg/mL)	32 µM (≈ 31.7 µg/mL)	128 µM (≈ 127 µg/mL)	8 µM (≈ 7.92 µg/mL)	16 µM (≈ 15.8 µg/mL)
CC(C)C[C@@H]1NC(=O)CNC(=O)[C@H](Cc2ccc3ccccc3c2)NC(=O)[C@H](CCCNC(=N)N)NC(=O)[C@H](CC2CCCCC2)NC(=O)[C@H](Cc2ccc3ccccc3c2)NC(=O)[C@H](CCCNC(=N)N)NC1=O (cyclo([2Nal][Cha]R[2Nal]GLR))	96%	60 µM	16 µM (≈ 16.5 µg/mL)	128 µM (≈ 132 µg/mL)	64 µM (≈ 65.9 µg/mL)	16 µM (≈ 16.5 µg/mL)	64 µM (≈ 65.9 µg/mL)	8 µM (≈ 8.24 µg/mL)	16 µM (≈ 16.5 µg/mL)
CC(C)C[C@@H]1NC(=O)[C@H](Cc2ccc3ccccc3c2)NC(=O)[C@H](CCCNC(=N)N)NC(=O)[C@H](CC2CCCCC2)NC(=O)CNC(=O)[C@H](Cc2ccc3ccccc3c2)NC(=O)[C@H](CCCNC(=N)N)NC1=O (cyclo([2Nal]G[Cha]R[2Nal]LR))	99%	28 µM	16 µM (≈ 16.5 µg/mL)	128 µM (≈ 132 µg/mL)	128 µM (≈ 132 µg/mL)	32 µM (≈ 33 µg/mL)	64 µM (≈ 65.9 µg/mL)	16 µM (≈ 16.5 µg/mL)	32 µM (≈ 33 µg/mL)
CCCCCCC1NC(=O)[C@H](Cc2ccc3ccccc3c2)NC(=O)[C@H](CCCNC(=N)N)NC(=O)[C@H](CC(C)C)NC(=O)CNC(=O)[C@H](Cc2ccc3ccccc3c2)NC(=O)[C@H](CCCNC(=N)N)NC1=O (some centres undefined)	100%	33 µM	2 µM (≈ 2.04 µg/mL)	32 µM (≈ 32.6 µg/mL)	16 µM (≈ 16.3 µg/mL)	16 µM (≈ 16.3 µg/mL)	16 µM (≈ 16.3 µg/mL)	4 µM (≈ 4.07 µg/mL)	4 µM (≈ 4.07 µg/mL)
CC(C)C[C@@H]1NC(=O)CNC(=O)[C@H](Cc2ccc(-c3ccccc3)cc2)NC(=O)[C@H](CCCNC(=N)N)NC(=O)[C@H](CC(C)C)NC(=O)[C@H](Cc2ccc(-c3ccccc3)cc2)NC(=O)[C@H](CCCNC(=N)N)NC1=O (cyclo([Bip]GLR[Bip]LR))	96%	16 µM	8 µM (≈ 8.34 µg/mL)	64 µM (≈ 66.7 µg/mL)	32 µM (≈ 33.4 µg/mL)	16 µM (≈ 16.7 µg/mL)	32 µM (≈ 33.4 µg/mL)	8 µM (≈ 8.34 µg/mL)	16 µM (≈ 16.7 µg/mL)
CC(C)C[C@@H]1NC(=O)CNC(=O)[C@H](C(c2ccccc2)c2ccccc2)NC(=O)[C@H](CCCNC(=N)N)NC(=O)[C@H](CC(C)C)NC(=O)[C@H](C(c2ccccc2)c2ccccc2)NC(=O)[C@H](CCCNC(=N)N)NC1=O (cyclo([Dip]GLR[Dip]LR))	54%	145 µM	16 µM (≈ 16.7 µg/mL)	> 128 µM	128 µM (≈ 133 µg/mL)	64 µM (≈ 66.7 µg/mL)	64 µM (≈ 66.7 µg/mL)	16 µM (≈ 16.7 µg/mL)	64 µM (≈ 66.7 µg/mL)
CC(C)C[C@@H]1NC(=O)CNC(=O)[C@H](Cc2ccc3ccccc3c2)NC(=O)[C@H](CCCNC(=N)N)NC(=O)[C@@H]2CCCN2C(=O)[C@H](Cc2ccc3ccccc3c2)NC(=O)[C@H](CCCNC(=N)N)NC1=O (cyclo([2Nal]GLR[2Nal]PR))	< 8%	> 150 µM	32 µM (≈ 31.2 µg/mL)	> 128 µM	> 128 µM	> 128 µM	> 128 µM	64 µM (≈ 62.3 µg/mL)	128 µM (≈ 125 µg/mL)
CC(C)C[C@@H]1NC(=O)[C@H](Cc2ccc3ccccc3c2)NC(=O)[C@H](CCCNC(=N)N)NC(=O)[C@H](CCC(N)=O)NC(=O)CNC(=O)[C@H](Cc2ccc3ccccc3c2)NC(=O)[C@H](CCCNC(=N)N)NC1=O (cyclo([2Nal]GQR[2Nal]LR))	< 8%	> 150 µM	16 µM (≈ 16.1 µg/mL)	> 128 µM	> 128 µM	> 128 µM	> 128 µM	128 µM (≈ 129 µg/mL)	128 µM (≈ 129 µg/mL)
CC(C)C[C@@H]1NC(=O)CNC(=O)[C@H](Cc2ccc3ccccc3c2)NC(=O)[C@H](CCCNC(=N)N)NC(=O)[C@H](CC(C)C)NC(=O)[C@H](Cc2ccc3ccccc3c2)NC(=O)[C@H](CCCCN)NC1=O (cyclo([2Nal]GLK[2Nal]LR))	14%	> 150 µM	16 µM (≈ 15.4 µg/mL)	128 µM (≈ 123 µg/mL)	> 128 µM	128 µM (≈ 123 µg/mL)	> 128 µM	32 µM (≈ 30.8 µg/mL)	32 µM (≈ 30.8 µg/mL)
